Laboratory results taken from patent US8552002B2 (Novartis AG, priority 2004, dated 2013).

How the values were obtained:
Assay type in all cases: biochemical
[1] = biological target: T1, KDR (Homo sapiens, UniProt P35968); experiment: Inhibitory activity against KDR (VEGF-R2), in vitro data of Examples 170 and 207; conditions: 10 μM; Examples 1 to 169; read-out: KDR inhibition at 10 μM
T1 construct: expressed in transfected cells; host or cells: CHO cells
Description: (Controls comprise medium without test compounds). After two hours of incubation at 37° C., recombinant VEGF is added; the final VEGF concentration is 20 ng/ml. After a further five minutes incubation at 37° C., the cells are washed twice with ice-cold PBS (phosphate-buffered saline) and immediately lysed in 100 μl lysis buffer per well. The lysates are then centrifuged to remove the cell nuclei, and the protein concentrations of the supernatants are determined using a commercial protein assay (BIORAD). The lysates can then either be immediately used or, if necessary, stored at −20° C. […] The plates are then washed and the remaining free protein-binding sites are saturated with 3% TopBlock® (Juro, Cat. # TB232010) in phosphate buffered saline with Tween 20® (polyoxyethylen(20)sorbitane monolaurate, ICI/Uniquema) (PBST). The cell lysates (20 μg protein per well) are then incubated in these plates overnight at 4° C. together with an antiphosphotyrosine antibody coupled with alkaline phosphatase (PY20:AP from Zymed). […] The luminescence is measured in a Packard Top Count Microplate Scintillation Counter.

[2] = biological target: T2, FGFR3 (K650E) (Homo sapiens, UniProt P22607, K650E); experiment: Recombinant GST-FGFR-3-K650E tyrosine kinase assay (33P into poly(Glu,Tyr)); conditions: 10 μM; Examples 1 to 169; read-out: FGFR3 (K650E) inhibition at 10 μM
T2 construct: amino acids 411-806 of the cytoplasmic domain of human FGFR-3, N-terminally fused to GST; made in house; host or cells: Sf9 insect cells (baculovirus)

[3] = biological target: T3, Tek (Homo sapiens, UniProt Q02763); experiment: Recombinant GST-Tek (Tie-2) tyrosine kinase assay (33P into poly(Glu,Tyr)); conditions: Examples 1 to 169
T3 construct: amino acids 773-1124 of the cytoplasmic kinase domain of human Tek, N-terminally fused to GST; made in house; host or cells: Sf9 insect cells (baculovirus)
Description: (Tie-2/Tek): The baculovirus donor vector pFbacG01 was used to generate a recombinant baculovirus that expressed the amino acid region amino acids 773-1124 of the cytoplasmic kinase domain of human Tek, N-terminally fused to GST (Provided by Dr. Marmé, Institute of Molecular Medicine, Freiburg, Germany based on a Research Collaboration). Tek was recloned into the pFbacG01 transfer vector by EcoRI excision and ligation into EcoRI digested pFbacG01 (FBG-Tie2/Tek).
Production of virus: Transfer vectors containing the kinase domains were transfected into the DH10Bac cell line (GIBCO) and plated on selective agar plates. Colonies without insertion of the fusion sequence into the viral genome (carried by the bacteria) are blue. Single white colonies were picked and viral DNA (bacmid) isolated from the bacteria by standard plasmid purification procedures. Sf9 cells or Sf21 cells were then transfected in 25 cm^2 flasks with the viral DNA using Cellfectin reagent.
Determination of small scale protein expression in Sf9 cells: Virus containing media was collected from the transfected cell culture and used for infection to increase its titer. Virus containing media obtained after two rounds of infection was used for large-scale protein expression. For large-scale protein expression 100 cm^2 round tissue culture plates were seeded with 5×10^7 cells/plate and infected with 1 mL of virus-containing media (approx. 5 MOIs). After 3 days the cells were scraped off the plate and centrifuged at 500 rpm for 5 min. Cell pellets from 10-20, 100 cm^2 plates, were resuspended in 50 mL of ice-cold lysis buffer (25 mMTris-HCl, pH7.5, 2 mMEDTA, 1% NP-40, 1 mM DTT, 1 mMP MSF). The cells were stirred on ice for 15 min and then centrifuged at 5000 rpms for 20 min.
Purification of GST-tagged proteins: The centrifuged cell lysate was loaded onto a 2 mL glutathione-sepharose column and washed three times with 10 mL of 25 mM Tris-HCl, pH 7.5, 2 mM EDTA, 1 mM DTT, 200 mM NaCl. The GST-tagged proteins were then eluted by 10 applications (1 mL each) of 25 mM Tris-HCl, pH 7.5, 10 mM reduced-glutathione, 100 mM NaCl, 1 mM DTT, 10% Glycerol and stored at −70° C.
Measure of enzyme activity: Tyrosine protein kinase assays with either purified GST-Ret, GST-Tek or GST-FGFR-3-K650E were carried out in a final volume of 30 μL with final concentrations of the following components: Ret included 15 ng of GST-Ret, 20 mM Tris-HCl, pH 7.5, 1 mM MnCl2, 10 mM MgCl2, 1 mM DTT, 3 μg/mL poly(Glu,Tyr) 4:1, 1% DMSO and 2.0 μM ATP (γ-[^33P]-ATP 0.1 μCi). Tek included 150 ng of GST-Tek, 20 mM Tris-HCl, pH 7.5, 3 mM MnCl2, 3 mM MgCl2, 1 mM DTT, 0.01 mM Na3VO4, 250 μg/mL PEG 20'000, 10 μg/mL poly(Glu,Tyr) 4:1, 1% DMSO and 4.0 μM ATP (γ-[^33P]-ATP 0.1 μCi). FGFR-3-K650E included 10 ng of GST-FGFR-3-K650E, 20 mM Tris-HCl, pH 7.5, 3 mM MnCl2, 3 mM MgCl2, 1 mM DTT, […], 10 μg/mL poly(Glu,Tyr) 4:1, 1% DMSO and 4.0 μM ATP (γ-[^33P]-ATP 0.1 μCi).The activity was assayed in the presence or absence of inhibitors, by measuring the incorporation of ^33P from [γ^33P] ATP into poly(Glu,Tyr) 4:1. The assay was carried out in 96-well plates at ambient temperature for 30 min under conditions described below and terminated by the addition of 50 μL of 125 mM EDTA. Subsequently, 60 μL of the reaction mixture were transferred onto Immobilon-PVDF membrane (Millipore) previously soaked for 5 min with methanol, rinsed with water, then soaked for 5 min with 0.5% H3PO4 and mounted on vacuum manifold with disconnected vacuum source. After spotting all samples, vacuum was connected and each well rinsed with 200 μL 0.5% H3PO4. Membranes were removed and washed 4× on a shaker with 1.0% H3PO4, once with ethanol. Membranes were counted after drying at ambient temperature, mounting in Packard TopCount 96-well frame, and addition of 10 μL/well of Microscint™ (Packard). […]

T1 sequence (P35968 20-1356): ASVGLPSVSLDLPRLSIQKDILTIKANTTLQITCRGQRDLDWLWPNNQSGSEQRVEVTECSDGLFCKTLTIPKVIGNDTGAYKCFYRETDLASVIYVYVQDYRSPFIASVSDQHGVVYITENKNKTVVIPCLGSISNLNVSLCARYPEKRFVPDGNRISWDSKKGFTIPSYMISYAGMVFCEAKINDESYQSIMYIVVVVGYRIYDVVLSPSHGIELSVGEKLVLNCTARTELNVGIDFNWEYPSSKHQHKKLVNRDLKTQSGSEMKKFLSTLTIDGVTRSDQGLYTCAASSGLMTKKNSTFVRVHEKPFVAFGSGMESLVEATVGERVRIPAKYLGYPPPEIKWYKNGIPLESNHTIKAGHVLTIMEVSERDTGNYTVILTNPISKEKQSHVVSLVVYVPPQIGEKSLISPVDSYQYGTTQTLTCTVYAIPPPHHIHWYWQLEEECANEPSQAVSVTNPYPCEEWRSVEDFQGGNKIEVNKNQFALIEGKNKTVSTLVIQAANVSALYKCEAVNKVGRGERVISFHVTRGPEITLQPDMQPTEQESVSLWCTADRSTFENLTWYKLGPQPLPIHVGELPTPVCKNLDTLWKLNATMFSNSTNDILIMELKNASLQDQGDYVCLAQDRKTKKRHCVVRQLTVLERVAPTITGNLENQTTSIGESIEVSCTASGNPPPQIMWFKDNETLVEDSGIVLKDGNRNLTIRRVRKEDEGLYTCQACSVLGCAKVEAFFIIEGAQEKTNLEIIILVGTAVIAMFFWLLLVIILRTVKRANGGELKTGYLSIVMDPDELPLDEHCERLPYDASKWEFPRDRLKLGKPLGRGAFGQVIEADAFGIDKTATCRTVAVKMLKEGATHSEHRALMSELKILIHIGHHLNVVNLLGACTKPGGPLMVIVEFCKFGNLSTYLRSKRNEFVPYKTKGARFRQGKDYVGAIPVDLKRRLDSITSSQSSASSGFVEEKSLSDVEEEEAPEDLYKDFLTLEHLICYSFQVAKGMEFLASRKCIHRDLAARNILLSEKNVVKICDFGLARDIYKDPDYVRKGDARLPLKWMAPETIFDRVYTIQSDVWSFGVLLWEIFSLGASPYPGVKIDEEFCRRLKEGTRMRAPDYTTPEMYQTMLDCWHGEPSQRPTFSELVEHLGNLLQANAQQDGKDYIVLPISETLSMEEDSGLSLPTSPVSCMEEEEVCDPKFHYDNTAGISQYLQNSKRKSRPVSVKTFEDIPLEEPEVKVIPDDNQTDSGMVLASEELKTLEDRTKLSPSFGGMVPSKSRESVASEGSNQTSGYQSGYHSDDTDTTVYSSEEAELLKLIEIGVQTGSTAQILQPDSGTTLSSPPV
T2 sequence (P22607 411-806 K650E): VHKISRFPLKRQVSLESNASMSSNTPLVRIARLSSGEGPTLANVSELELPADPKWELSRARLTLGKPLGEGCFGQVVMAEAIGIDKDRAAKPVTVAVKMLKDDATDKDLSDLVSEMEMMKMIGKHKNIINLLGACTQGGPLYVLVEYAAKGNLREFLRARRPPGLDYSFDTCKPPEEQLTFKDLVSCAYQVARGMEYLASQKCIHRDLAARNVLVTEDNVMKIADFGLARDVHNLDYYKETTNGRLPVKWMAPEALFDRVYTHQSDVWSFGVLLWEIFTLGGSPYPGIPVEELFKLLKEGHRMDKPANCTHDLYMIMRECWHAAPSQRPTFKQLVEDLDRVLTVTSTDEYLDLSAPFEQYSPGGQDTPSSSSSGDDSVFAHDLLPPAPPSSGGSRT
T3 sequence (Q02763 773-1124): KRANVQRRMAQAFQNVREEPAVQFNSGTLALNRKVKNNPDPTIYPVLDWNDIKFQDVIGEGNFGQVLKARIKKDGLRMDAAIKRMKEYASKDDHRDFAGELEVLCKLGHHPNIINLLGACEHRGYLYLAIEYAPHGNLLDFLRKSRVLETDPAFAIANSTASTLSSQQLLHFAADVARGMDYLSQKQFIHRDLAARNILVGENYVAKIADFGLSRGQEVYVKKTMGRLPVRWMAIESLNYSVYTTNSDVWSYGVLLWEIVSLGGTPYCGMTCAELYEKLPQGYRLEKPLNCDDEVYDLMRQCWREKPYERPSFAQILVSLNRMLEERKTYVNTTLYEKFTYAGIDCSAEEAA

Row | inhibition at 10 µM [1] [%] | inhibition at 10 µM [2] [%] | inhibition at 10 µM [3] [%] | SMILES
1 | 67 to 100 | 27 to 100 | 12 to 100 | COc1cc(NC(=O)N(C)c2cc(Nc3cccc(N4CCN(C)CC4)c3)ncn2)c(Cl)c(OC)c1 [Example 51, 3-(2-Chloro-3,5-dimethoxy-phenyl)-1-methyl-1-{6-[3-(4-methyl-piperazin-1-yl)-phenylamino]-pyrimidin-4-yl}-urea]
2 | 67 to 100 | 27 to 100 | 12 to 100 | CCN(CC)CCOc1ccc(Nc2cc(NC(=O)Nc3cc(OC)cc(OC)c3Cl)ncn2)cc1 [Example 42, 1-(2-Chloro-3,5-dimethoxy-phenyl)-3-{6-[4-(2-diethylamino-ethoxy)-phenylamino]-pyrimidin-4-yl}-urea]
3 | 67 to 100 | 27 to 100 | 12 to 100 | COc1ccc(Nc2cc(NC(=O)Nc3c(Cl)cccc3Cl)ncn2)cn1 [Example 112, 1-(2,6-Dichloro-phenyl)-3-[6-(6-methoxy-pyridin-3-ylamino)-pyrimidin-4-yl]-urea]
4 | 67 to 100 | 27 to 100 | 12 to 100 | COc1ccc(NC(=O)N(C)c2cc(Nc3ccc(F)cc3)ncn2)cc1 [Example 116, 1-[6-(4-Fluoro-Phenylamino)-pyrimidin-4-yl]-3-(4-methoxy-phenyl)-1-methyl-urea]
5 | 67 to 100 | 27 to 100 | 12 to 100 | O=C(Nc1cc(Nc2ccc(OCCN3CCOCC3)cc2)ncn1)Nc1ccccc1Cl [Example 142, 1-(2-Chloro-phenyl)-3-{6-[4-(2-morpholin-4-yl-ethoxy)-phenylamino]-pyrimidin-4-yl}-urea]
6 | 67 to 100 | 27 to 100 | 12 to 100 | CCN(C(=O)Nc1c(Cl)c(OC)cc(OC)c1Cl)c1cc(Nc2ccc(N3CCN(C)CC3)cc2)ncn1 [Example 143, 3-(2,6-Dichloro-3,5-dimethoxy-phenyl)-1-ethyl-1-{6-[4-(4-methyl-piperazin-1-yl)-phenylamino]-pyrimidin-4-yl}-urea]
7 | 67 to 100 | 27 to 100 | 12 to 100 | COc1cc(OC)c(Cl)c(NC(=O)N(C)c2cc(Nc3ccc(C(F)(F)F)nc3)ncn2)c1Cl [Example 154, 3-(2,6-Dichloro-3,5-dimethoxy-phenyl)-1-methyl-1-[6-(6-trifluoromethyl-pyridin-3-ylamino)-pyrimidin-4-yl]-urea]
8 | 67 to 100 | 27 to 100 | 12 to 100 | CCN(CC)c1ccc(Nc2cc(NC(=O)Nc3c(F)cccc3F)ncn2)cc1 [Example 105, 1-[6-(4-Diethylamino-phenylamino)-pyrimidin-4-yl]-3-(2,6-difluoro-phenyl)-urea]
9 | 67 to 100 | 27 to 100 | 12 to 100 | COc1cc(NC(=O)Nc2cc(Nc3cccc(OCCN(C)C)c3)ncn2)c(Cl)c(OC)c1 [Example 43, 1-(2-Chloro-3,5-dimethoxy-phenyl)-3-{6-[3-(2-dimethylamino-ethoxy)-phenylamino]-pyrimidin-4-yl}-urea]
10 | 67 to 100 | 27 to 100 | 12 to 100 | CCN(CC)CCOc1ccc(Nc2cc(NC(=O)Nc3c(Cl)cccc3Cl)ncn2)cc1 [Example 100, 1-(2,6-Dichloro-Phenyl)-3-{6-[4-(2-diethylamino-ethoxy)-phenylamino]-pyrimidin-4-yl}-urea]
11 | 67 to 100 | 27 to 100 | 12 to 100 | COc1cc(NC(=O)N(C)c2cc(Nc3cccc(N4CCN(C)CC4)c3)ncn2)cc(OC)c1 [Example 48, 3-(3,5-Dimethoxy-phenyl)-1-methyl-1-{6-[3-(4-methyl-piperazin-1-yl)-phenylamino]-pyrimidin-4-yl}-urea]
12 | 67 to 100 | 27 to 100 | 12 to 100 | COc1cc(NC(=O)Nc2cc(Nc3cccc(N4CCN(C)CC4)c3)ncn2)c(Cl)c(OC)c1 [Example 41]
13 | 67 to 100 | 27 to 100 | 12 to 100 | O=C(Nc1cc(Nc2cccc(Cl)c2)ncn1)Nc1ccccc1Br [Example 129, 1-(2-Bromo-phenyl)-3-[6-(3-chloro-phenylamino)-pyrimidin-4-yl]-urea]
14 | 67 to 100 | 27 to 100 | 12 to 100 | COc1ccc(C)c(NC(=O)Nc2cc(Nc3cccc(Cl)c3)ncn2)c1 [Example 134, 1-[6-(3-Chloro-phenylamino)-pyrimidin-4-yl]-3-(5-methoxy-2-methyl-phenyl)-urea]
15 | 67 to 100 | 27 to 100 | 12 to 100 | CN(C(=O)Nc1c(Cl)cccc1Cl)c1cc(Nc2ccc(F)cc2)ncn1 [Example 123, 3-(2,6-Dichloro-phenyl)-1-[6-(4-fluoro-phenylamino)-pyrimidin-4-yl]-1-methyl-urea]
16 | 67 to 100 | 27 to 100 | 12 to 100 | CN(C(=O)Nc1c(Cl)cccc1Cl)c1cc(Nc2ccc(F)cc2F)ncn1 [Example 118, 3-(2,6-Dichloro-phenyl)-1-[6-(2,4-difluoro-phenylamino)-pyrimidin-4-yl]-1-methyl-urea]
17 | 67 to 100 | 27 to 100 | 12 to 100 | COc1cc(OC)c(Cl)c(NC(=O)N(C)c2cc(Nc3cccc(CN4CCN(C(C)C)CC4)c3)ncn2)c1Cl [Example 161, 3-(2,6-Dichloro-3,5-dimethoxy-phenyl)-1-{6-[3-(4-isopropyl-piperazin-1-ylmethyl)-phenylamino]-pyrimidin-4-yl}-1-methyl-urea]
18 | 67 to 100 | 27 to 100 | 12 to 100 | Cc1cccc(C)c1NC(=O)N(C)c1cc(Nc2cccc(Cl)c2)ncn1 [Example 127, 1-[6-(3-Chloro-phenylamino)-pyrimidin-4-yl]-3-(2,6-dimethyl-phenyl)-1-methyl-urea]
